Where two headings read alike, the source gives them in different places. Where a SMILES comes first, the peptide text is derived from it. The star is where a group is joined. X1 = O=C(CCCCc1cn([C@@H]2O[C@H](CO)[C@H](O)[C@H](O)[C@H]2O)nn1)*; NODAGA = O=C(O)CN1CCN(CC(=O)O)CCN(C(CCC(=O)*)C(=O)O)CC1; GABA = NCCCC(=O)O
What was measured:
[1] = complex stability in human blood serum; assay type: in vitro ADME
Experimental: (§1) The ^68Ge/^68Ga generator, devices for analytical HPLC, semipreparative HPLC, mass spectrometry, radio-thin layer chromatography, gamma counter and animal models for biodistribution and imaging studies including the image reconstruction procedures were the same as described before.[22] Stability assays in PBS and human blood serum, protein binding as well as determination of log D values followed established protocols.[25] Binding affinities (IC50) of selected ligands were determined in an isolated receptor-based assay according to a previously published procedure with minor modifications.[22] Dilutions of nonradioactive complexes were made with PBS + 0.1% BSA (10^–5–10^–12 M). Preparation of [^125I]I-Asialoorosomucoid which serves as the radioactive standard ligand has been published recently.[21]

[2] = complex stability in PBS; assay type: physicochemical
Experimental: as §1

[3] = protein binding in human serum; assay type: in vitro ADME; details: human, serum
Experimental: as §1

[4] = log D determination; assay type: physicochemical
Experimental: as §1

[5] = biodistribution in healthy BALB/c mice; details: mouse, in vivo
Experimental: as §1
(§2) Animal experiments were performed in accordance with the Austrian animal experiments law (BGBl. I Nr. 114/2012) and the institution’s animal welfare standards as approved by the Austrian Federal Ministry of Education, Science and Research (BMBWF, 2022–0.311.708). Imaging experiments were conducted at Werner Siemens Imaging Center (Tübingen, Germany) according to the German animal welfare act as approved by the local authorities (R5/19 G, R09/21 G).
(§3) Figure 2 Biodistribution data (% ID/g) of ^68Ga-labeled NODAGA-GalNAc-NonaLysan, NODAGA-NonaLysan, NODAGA-HexaLysan, and NODAGA-TriLysan in healthy BALB/c mice at 10, 30, and 60 min p.i. (100 pmol, 1 MBq).

[6] = system: healthy female BALB/c mice; assay: biodistribution in healthy BALB/c mice; details: mouse, in vivo
Experimental: as §1, §2, §3

[7] = 2 min, read-out: protein binding (%) (converted)
[8] = 30 min, read-out: protein binding (%) (converted)

NC(=O)CNC(=O)CNC(=O)[C@H](CCCCNC(=O)CCCCc1cn([C@@H]2O[C@H](CO)[C@H](O)[C@H](O)[C@H]2O)nn1)NC(=O)CNC(=O)CNC(=O)[C@H](CCCCNC(=O)CCCCc1cn([C@@H]2O[C@H](CO)[C@H](O)[C@H](O)[C@H]2O)nn1)NC(=O)CNC(=O)CNC(=O)[C@H](CCCCNC(=O)CCCCc1cn([C@@H]2O[C@H](CO)[C@H](O)[C@H](O)[C@H]2O)nn1)NC(=O)CCCNC(=O)CCC(C(=O)O)N1CCN(CC(=O)O)CCN(CC(=O)O)CC1 (stereo partly drawn) [[^68Ga]Ga-NODAGA-TriLysan, metal not drawn] ({NODAGA-GABA}-K(X1)GGK(X1)GGK(X1)GG-NH2)
complex stability in serum (% intact ligand) ([1]; 2 min): 99.9% | complex stability in serum (% intact ligand) ([1]; 30 min): 99.9% | complex stability in serum (% intact ligand) ([1]; 60 min): 99.9% | complex stability in serum (% intact ligand) ([1]; 120 min): 99.9% | complex stability in PBS (% intact ligand) ([2]; 2 min): 99.7% | complex stability in PBS (% intact ligand) ([2]; 30 min): 99.8% | complex stability in PBS (% intact ligand) ([2]; 60 min): 99.8% | complex stability in PBS (% intact ligand) ([2]; 120 min): 99.8% | fraction unbound [3, 7]: 0.924 | fraction unbound [3, 8]: 0.945 | fraction unbound ([3]; 60 min, read-out: protein binding (%) (converted)): 0.908 | fraction unbound ([3]; 120 min, read-out: protein binding (%) (converted)): 0.864 | logD [4]: -3.52 | tissue uptake at 10 min ([5]; 10 min p.i., read-out: Blood uptake): 3.6 ± 0.1 %ID/g | tissue uptake at 10 min ([5]; 10 min p.i., read-out: Femur uptake): 0.9 ± 0.3 %ID/g | tissue uptake at 10 min ([5]; 10 min p.i., read-out: Heart uptake): 1.4 ± 0.01 %ID/g | tissue uptake at 10 min ([5]; 10 min p.i., read-out: Intestine uptake): 1.2 ± 0.3 %ID/g | tissue uptake at 10 min ([5]; 10 min p.i., read-out: Kidneys uptake): 7.6 ± 1.4 %ID/g | tissue uptake at 10 min ([5]; 10 min p.i., read-out: Liver uptake): 9.5 ± 1.6 %ID/g | tissue uptake at 10 min ([5]; 10 min p.i., read-out: Lung uptake): 2.6 ± 0.2 %ID/g | tissue uptake at 10 min ([5]; 10 min p.i., read-out: Muscle uptake): 0.9 ± 0.1 %ID/g | tissue uptake at 10 min ([5]; 10 min p.i., read-out: Pancreas uptake): 1 ± 0.04 %ID/g | tissue uptake at 10 min ([5]; 10 min p.i., read-out: Spleen uptake): 1 ± 0.01 %ID/g | tissue uptake at 10 min ([5]; 10 min p.i., read-out: Stomach uptake): 1.6 ± 0.2 %ID/g | tissue uptake at 0.5 h ([5]; 30 min p.i., read-out: Blood uptake): 1.6 ± 0.2 %ID/g | tissue uptake at 0.5 h ([5]; 30 min p.i., read-out: Femur uptake): 0.4 ± 0.02 %ID/g | tissue uptake at 0.5 h ([5]; 30 min p.i., read-out: Heart uptake): 0.6 ± 0.04 %ID/g | tissue uptake at 0.5 h ([5]; 30 min p.i., read-out: Intestine uptake): 1.1 ± 0.02 %ID/g | tissue uptake at 0.5 h ([5]; 30 min p.i., read-out: Kidneys uptake): 5 ± 0.02 %ID/g | tissue uptake at 0.5 h ([5]; 30 min p.i., read-out: Liver uptake): 9.4 ± 2 %ID/g | tissue uptake at 0.5 h ([5]; 30 min p.i., read-out: Lung uptake): 1.2 ± 0.1 %ID/g | tissue uptake at 0.5 h ([5]; 30 min p.i., read-out: Muscle uptake): 0.4 ± 0.04 %ID/g | tissue uptake at 0.5 h ([5]; 30 min p.i., read-out: Pancreas uptake): 0.4 %ID/g | tissue uptake at 0.5 h ([5]; 30 min p.i., read-out: Spleen uptake): 0.4 ± 0.02 %ID/g | tissue uptake at 0.5 h ([5]; 30 min p.i., read-out: Stomach uptake): 0.9 ± 0.1 %ID/g | tissue uptake at 1 h ([5]; 60 min p.i., read-out: Blood uptake): 0.3 ± 0.01 %ID/g | tissue uptake at 1 h ([5]; 60 min p.i., read-out: Femur uptake): 0.1 ± 0.01 %ID/g | tissue uptake at 1 h ([5]; 60 min p.i., read-out: Heart uptake): 0.2 ± 0.01 %ID/g | tissue uptake at 1 h ([5]; 60 min p.i., read-out: Intestine uptake): 1 ± 0.3 %ID/g | tissue uptake at 1 h ([5]; 60 min p.i., read-out: Kidneys uptake): 2 ± 0.3 %ID/g | tissue uptake at 1 h ([5]; 60 min p.i., read-out: Liver uptake): 9.2 ± 0.3 %ID/g | tissue uptake at 1 h ([5]; 60 min p.i., read-out: Lung uptake): 0.5 ± 0.1 %ID/g | tissue uptake at 1 h ([5]; 60 min p.i., read-out: Muscle uptake): 0.1 %ID/g | tissue uptake at 1 h ([5]; 60 min p.i., read-out: Pancreas uptake): 0.2 ± 0.01 %ID/g | tissue uptake at 1 h ([5]; 60 min p.i., read-out: Spleen uptake): 0.2 %ID/g | tissue uptake at 1 h ([5]; 60 min p.i., read-out: Stomach uptake): 0.3 ± 0.01 %ID/g

NC(=O)CNC(=O)CNC(=O)[C@H](CCCCNC(=O)CCCCc1cn([C@@H]2O[C@H](CO)[C@H](O)[C@H](O)[C@H]2O)nn1)NC(=O)CNC(=O)CNC(=O)[C@H](CCCCNC(=O)CCCCc1cn([C@@H]2O[C@H](CO)[C@H](O)[C@H](O)[C@H]2O)nn1)NC(=O)CNC(=O)CNC(=O)[C@H](CCCCNC(=O)CCCCc1cn([C@@H]2O[C@H](CO)[C@H](O)[C@H](O)[C@H]2O)nn1)NC(=O)CNC(=O)CNC(=O)[C@H](CCCCNC(=O)CCCCc1cn([C@@H]2O[C@H](CO)[C@H](O)[C@H](O)[C@H]2O)nn1)NC(=O)CNC(=O)CNC(=O)[C@H](CCCCNC(=O)CCCCc1cn([C@@H]2O[C@H](CO)[C@H](O)[C@H](O)[C@H]2O)nn1)NC(=O)CNC(=O)CNC(=O)[C@H](CCCCNC(=O)CCCCc1cn([C@@H]2O[C@H](CO)[C@H](O)[C@H](O)[C@H]2O)nn1)NC(=O)CCCNC(=O)CCC(C(=O)O)N1CCN(CC(=O)O)CCN(CC(=O)O)CC1 (stereo partly drawn) [[^68Ga]Ga-NODAGA-HexaLysan, metal not drawn] ({NODAGA-GABA}-K(X1)GGK(X1)GGK(X1)GGK(X1)GGK(X1)GGK(X1)GG-NH2)
fraction unbound [3, 7]: 0.824 | fraction unbound [3, 8]: 0.782 | fraction unbound ([3]; protein binding (%)): 0.785 | logD [4]: -4.34 | tissue uptake at 10 min ([5]; Blood uptake): 2.1 ± 0.04 %ID/g | tissue uptake at 0.5 h ([5]; Blood uptake): 0.6 ± 0.1 %ID/g | tissue uptake at 1 h ([5]; Blood uptake): 1.1 ± 0.4 %ID/g | tissue uptake at 10 min ([5]; Femur uptake): 0.5 ± 0.1 %ID/g | tissue uptake at 0.5 h ([5]; Femur uptake): 0.3 ± 0.03 %ID/g | tissue uptake at 10 min ([5]; Heart uptake): 0.9 ± 0.1 %ID/g | tissue uptake at 0.5 h ([5]; Heart uptake): 0.4 ± 0.1 %ID/g | tissue uptake at 1 h ([5]; Heart uptake): 0.3 ± 0.02 %ID/g | tissue uptake at 10 min ([5]; Intestine uptake): 1.2 ± 0.3 %ID/g | tissue uptake at 0.5 h ([5]; Intestine uptake): 4 ± 0.3 %ID/g | tissue uptake at 1 h ([5]; Intestine uptake): 5.9 ± 1.7 %ID/g | tissue uptake at 10 min ([5]; Kidneys uptake): 4.8 ± 0.3 %ID/g | tissue uptake at 0.5 h ([5]; Kidneys uptake): 1.9 ± 0.2 %ID/g | tissue uptake at 1 h ([5]; Kidneys uptake): 1.3 ± 0.3 %ID/g | tissue uptake at 10 min ([5]; Liver uptake): 54.8 ± 3 %ID/g | tissue uptake at 0.5 h ([5]; Liver uptake): 55.5 ± 7.4 %ID/g | tissue uptake at 1 h ([5]; Liver uptake): 45.9 ± 11.8 %ID/g | tissue uptake at 10 min ([5]; Lung uptake): 1.6 ± 0.2 %ID/g | tissue uptake at 0.5 h ([5]; Lung uptake): 0.8 ± 0.1 %ID/g | tissue uptake at 1 h ([5]; Lung uptake): 0.6 ± 0.2 %ID/g | tissue uptake at 10 min ([5]; Muscle uptake): 0.9 ± 1.2 %ID/g | tissue uptake at 0.5 h ([5]; Muscle uptake): 0.6 ± 0.03 %ID/g | tissue uptake at 1 h ([5]; Muscle uptake): 0.4 ± 0.04 %ID/g | tissue uptake at 10 min ([5]; Pancreas uptake): 0.9 ± 0.1 %ID/g | tissue uptake at 0.5 h ([5]; Pancreas uptake): 0.7 ± 0.1 %ID/g | tissue uptake at 1 h ([5]; Pancreas uptake): 0.5 ± 0.1 %ID/g | tissue uptake at 10 min ([5]; Spleen uptake): 0.5 ± 0.1 %ID/g | tissue uptake at 0.5 h ([5]; Spleen uptake): 0.2 ± 0.1 %ID/g | tissue uptake at 1 h ([5]; Spleen uptake): 0.2 ± 0.02 %ID/g | tissue uptake at 10 min ([5]; Stomach uptake): 1.3 ± 0.3 %ID/g | tissue uptake at 0.5 h ([5]; Stomach uptake): 1.2 ± 0.3 %ID/g | tissue uptake at 1 h ([5]; Stomach uptake): 0.4 ± 0.1 %ID/g | Liver uptake ([6]; 0.5 h): 55.7 ± 7.4 % ID/g | Femur uptake ([6]; 1 h): 0 % ID/g

Source: paper PMC11881035, “^68Ga-Labeled Glycopeptides as Effective Tools for Liver Function Imaging” (Molecular Pharmaceutics, 2025)
